{"source": "paper PMC11109052", "about": "“Metabolism characterization and toxicity of N-hydap, a marine candidate drug for lung cancer therapy by LC–MS method” (Natural Products and Bioprospecting, 2024)", "system": "Cyp2e1", "test": "Real-time PCR mRNA level after 7 days gavage: Cyp2e1", "assay_type": "in vivo, mice", "design": "key to CYP2E1 mNA expression: ↑: up-regulation; ↓: down-regulation; –: no change", "settings": "for mRNA levels of Cyp2e1: mice, 2, 5, 10 mg/kg p.o. 7 days", "method": "Mice were randomly divided into four groups, with eight animals in each group. The mice received oral pretreatment with N-hydap for 7 days at doses of 2, 5, and 10 mg/kg/day, which were considered as the low dose, medium dose, and high dose, respectively. Correspondingly, the control group received PBS. On the 8th day, the liver and kidneys were removed, and organs from eight mice per group were combined to prepare MLMs and MKMs using the detailed procedures above. Subsequently, we determined the activity of CYP and UGT enzymes by specific substrate metabolized with MLMs (0.5 mg/mL) and MKMs (0.2 mg/mL) in vitro. Specifically, the following selective substrates were used for the respective enzymes: PH (1 μM) for CYP1A2, DIC (1 μM) for CYP2C9, MP (90 μM) for CYP2C19, DM (1 μM) for CYP2D6, CZX (10 μM) for CYP2E1, Tes (1 μM) for CYP3A4, SN38 (1 μM) for UGT1A1, CACD (100 μM) for UGT1A3, Sero (20 μM) for UGT1A6, and Prop (1 μM) for UGT1A9. All substrates were dissolved in methanol or DMSO. The incubation procedure was carried out as mentioned above, and the reaction was terminated with VER (20 ng/mL) in ESI+ mode and CLP (200 ng/mL) in ESI− mode. In the ex vivo experiments, the activity of enzymes was measured by quantifying the production of various metabolites (nM/mg protein/min). The metabolites and their corresponding enzymes are as follows: APAP from PH, 4-OH-DIC from DIC, 4-OH-MP from MP, DXO from DM, 6-OH-CZX from CZX, 6-OH-Tes from Tes, SN38-G from SN38, CACD-G from CACD, Sero-G from Sero, Prop-G from Prop. The measurements were performed using multiple reaction monitoring (MRM) transitions, which are specific mass spectrometry transitions used for quantification. The optimized parameters for each metabolite, such as declustering potential and collision energy, were described in Supplementary Table 1. All experiments were conducted in triplicate, to ensure accuracy and reproducibility.\nTotal RNA from liver and kidney samples taken after 7 days of N-hydap gavage was extracted using the Animal Total RNA Isolation Kit (Foregene, Chengdu, Sichuan, China) following the manufacturer’s instructions. The concentrations of total RNA were determined by a nucleic acid concentration tester at 260/280 nm. A HiScript III RT SuperMix for qPCR (+ gDNA wiper) (Vazyme, Nanjing, Jiangsu, China) was used to measure the concentration of the synthesized cDNA. ChamQ SYBR qPCR Master Mix (Vazyme, Nanjing, Jiangsu, China) and detection were performed using a Light Cycler 480 II (ROCHE, Basel, Switzerland). Real-time PCR was used to analyze the relative mRNA levels of Cyp1a2, Cyp2b10, Cyp2c39, Cyp2d22, Cyp2e1, Cyp3a11, Ugt1a1, Ugt1a6a and Ugt1a9 (human homologs: CYP1A2, CYP2B6, CYP2C19, CYP2D6, CYP2E1, CYP3A4, UGT1A1, UGT1A6, and UGT1A9) in the liver, kidneys, and intestines. […]", "data": [{"compound": "CC1CCC2C(C=CC(C)C2C(=O)c2c(O)c(C3(O)CCC(O)C4OC43)cn(O)c2=O)C1", "note": "(stereo not shown) [N-hydap, N-Hydroxyapiosporamide]", "values": [{"measurement": "CYP2E1 mNA expression", "setting": "Kidney", "value": "↑"}, {"measurement": "CYP2E1 mNA expression", "setting": "Liver", "value": "–"}, {"measurement": "mRNA levels of Cyp2e1", "setting": "intestines", "value": "slight reduction"}, {"measurement": "mRNA levels of Cyp2e1", "setting": "kidney", "value": "modest increase"}]}]}
